Here are results for 1 molecule from publication PMC7274485, “A symbiotic bacterium of shipworms produces a compound with broad spectrum anti-apicomplexan activity” (PLoS Pathogens, 2020).

Structures are written as SMILES. pEC50: −log10 of the molar value. Read-outs that look alike come from different tables or passages of the source.

The subject of one data set is Gram negative bacteria. The conditions noted are these: at μM concentrations; cited from earlier work.
The test system of the next data set is Plasmodium falciparum. Kind of data set: P. falciparum-infected erythrocyte proliferation, SYBR green incorporation. Format: cell-based. The conditions noted are these: Plasmodium falciparum, Erythrocyte. The source says:
The maintenance of Plasmodium falciparum cultures and conducting of in vitro inhibitor response assays have been previously described.

The next data set deals with Babesia bovis. Kind of data set: B. bovis-infected erythrocyte proliferation, SYBR green incorporation. Format: cell-based. The conditions noted are these: in Bos taurus, infected erythrocytes, 72 hours, read-out: EC50 against B. bovis. The procedure: (§1) B. bovis and B. bigemina inhibitor response assays were adapted from components of [79–81]. B. bovis and B. bigemina parasites were maintained in bovine erythrocytes under microaerophilic stationary phase conditions in vitro as described elsewhere. Prior to use in growth studies parasites were grown in erythrocytes from which leukocytes were depleted. Cultures were set up at 0.20% parasitized erythrocytes, in quadruplicate, in complete medium supplemented with trtE. Final concentration of DMSO in all cultures was 1%, and was consistent throughout. Following 72h growth under 90% nitrogen, 5% oxygen, 5% carbon dioxide cells were harvested by thorough resuspension, and transferred to a black, opaque 96-well plate. Cells were freeze-thawed at -80°C overnight, then mixed with an equal volume of SYBR Green lysis buffer. Lysis buffer was composed of 20 mM Tris, pH 7.5, 5 mM EDTA, 0.008% (w/v) saponin, 0.08% (v/v) NP40, and contained 0.2 μl 10,000x SYBR Green I dye ml^-1 (S7563; Invitrogen; Carlsbad, CA). Plates were incubated for one hour at room temperature in the dark prior to reading in a microplate reader, at 485 nm excitation and 528 nm emission wavelengths.

The subject of a further data set is Bovine turbinate cells. Kind of data set: Cytotoxicity for host cells, cellular ATP (CellTiter-Glo): BT cells.
In another data set the test system is T. gondii. Kind of data set: Intracellular T. gondii growth inhibition, luciferase expression in HFF cells. The conditions noted are these: Toxoplasma gondii; luciferase expressing RH or ME49 strain in HFF cells; trtE added 24 hours post-infection, read 24 hours later; purification method 1 or 2; read-out: EC50 against intracellular T. gondii. Format: cell-based. The protocol: To obtain sufficient trtE for in vitro and in vivo experiments, bacterial growth conditions were optimized, and a modified purification method was developed and validated by ESI-HRMS, LC/MS/MS and NMR (purification method 2; see methods and S8–S9 Figs). To determine the effective concentration at which trtE inhibited the growth of 50% of T. gondii parasites (EC50), HFF cells were seeded into 96 well plates and infected with luciferase expressing T. gondii tachyzoites. 24 hours post-infection two-fold serial dilutions of trtE, purified by method 1 or method 2, or DMSO vehicle control were added to the infected cells. 24 hours later, the infected cells were lysed and parasite growth quantified by luciferase expression. The EC50 of trtE against intracellular T. gondii was determined to be 3 nM regardless of purification method.
T. gondii parasite lines were maintained by passage in HFFs as previously described. […] Growth was monitored by luciferase expression using Bright-glo Luciferase assay system (Promega Corp., Madison, WI). […] Infected cells were then incubated for 72 hours before growth was quantified by luciferase expression. […]

The subject of another data set is B. bigemina. Kind of data set: B. bigemina-infected erythrocyte proliferation, SYBR green incorporation. The format is cell-based. The conditions noted are these: Babesia bigemina, infected erythrocytes, 72 hours, read-out: EC50 against B. bigemina. The procedure:
as §1

Description for Bovine turbinate cells: Toxicity was evaluated by measuring cellular ATP concentrations.
HCT8, HFF and BT cells were seeded in 96-well plates to achieve 20–30% confluence after 24 hours of growth.

As for `CC1CCC=CC=CCCC(O)CC(=O)CC2CCC(C)C3(O2)O[B-]24OC(C(=O)O1)C1(OC(CCC1C)CC(=O)CC(O)CCC=CC=CCCC(C)OC(=O)C3O2)O4` (centres unmarked) [trtE, tartrolon E], the “Activity of trtE against Gram negative bacteria” value in the data set on Gram negative bacteria was “active”. Moreover, the pEC50 is 10.00 in the data set on Plasmodium falciparum (Table 1, rounded, read-out: EC50 against P. falciparum (Table 1)); 9.98 with Plasmodium falciparum (infected erythrocytes, 72 hours, read-out: EC50 against P. falciparum); 7.80 in the data set on Babesia bovis; 8.52 in the data set with T. gondii; 8.03 with B. bigemina. The “TC50 (median toxic concentration) for BT cells” value in the data set with Bovine turbinate cells (20–30% confluency, 24 hours, cellular ATP) is 16800 nM. In the data set with Bovine turbinate cells (TC50/EC50), the “Selectivity Index, S. neurona vs Bovine turbinate cells” value is on record as 1302.

A word on the pEC50: it is −log10 of the EC50, conventionally taken in molar units.
